According to patent US7884133B2, “Pharmaceutical compositions containing (+) cannabidioil and derivatives thereof and some such novel derivatives” (priority 2003, dated 2011):
“Also recorded” adds a separate entry of the source. Where two headings read alike, the source gives them in different places.

How the values were obtained:
CB2 receptor [1] = target: T1, CB2 receptor (Homo sapiens, UniProt P34972); experiment: CB2 receptor binding; details: for Ki: second value of CB1/CB2 cell
female Sabra mice [2] = experiment: Hypothermia (rectal temperature); type: in vivo; details: 20 mg/kg i.p., * = P<0.05 vs vehicle
Description: (§1) Mice were injected with antagonist 90 minutes before testing and/or with agonist 60 minutes before testing in a series of four assays which reflect central cannabinoid activity [Martin (1991) id. ibid.; modified by Fride, E. and R. Mechoulam (1993) id. ibid.]. This “tetrad” consists of, consecutively, ambulation and rearing in an open field (8 minutes), immobility on an elevated ring of 5 cm diameter (4 minutes), rectal temperature (Yellow
(§2) Defecation was measured as the number of fecal pellets voided in the open field. In some experiments (as indicated below), fecal pellets and body temperature were assessed for a prolonged period (3 hr).

female Sabra mice [3] = experiment: Intestinal motility (defecation, number of fecal pellets); type: in vivo; details: 20 mg/kg i.p.; for Inhibition of Intesitinal Motility (% MPE): defecation in open field 8 min, normalized, * = P<0.05 vs vehicle; for inhibition of defecation / intestinal motility, in words: 60 minutes after injection
Description: as §2

female Sabra mice [4] = experiment: Tetrad: rearing (vertical movements) in an open field; type: in vivo; details: 20 mg/kg i.p., open field 8 min; normalized; * = P<0.05 vs vehicle
Description: as §1

female Sabra mice [5] = experiment: Tetrad: catalepsy (immobility) on an elevated ring; type: in vivo; details: 20 mg/kg i.p., elevated ring 4 min; normalized; * = P<0.05 vs vehicle
Description: as §1

female Sabra mice [6] = experiment: Tetrad: ambulation (horizontal movements) in an open field; type: in vivo; details: 20 mg/kg i.p., open field 8 min, 30 or 60 min after injection; normalized; * = P<0.05 vs vehicle
Description: as §1

CB1 receptor [7] = target: T2, CB1 receptor (Rattus norvegicus, UniProt P20272); experiment: CB1 receptor binding; details: for Ki: first value of CB1/CB2 cell
female Sabra mice [8] = experiment: Hot plate analgesia (centrally mediated pain); type: in vivo; details: 20 mg/kg i.p., hot plate 55° C., max 45 sec; normalized; * = P<0.05 vs vehicle
Description: Pain perception on a hot plate, is considered to be mediated by a central mechanism whereas the second, late phase of the response to an implantar injection of formalin reflects inflammatory pain mechanisms [Tjolsen, A. and Hole (1997) id. ibid.].
Thus, central pain perception was assessed by the analgesic response on a hot plate (55° C., Columbus Instruments, OH, USA). Peripheral pain was measured by the response to implantar injection of formalin (4%) 45 minutes after injection of the drug.

[9] = system: arachidonic acid-induced ear inflammation in the mouse; experiment: Arachidonic acid induced inflammation of the external ear; type: in vivo; details: for inhibition of arachidonic acid-induced ear inflammation, in words: i.p., 10 to 40 mg/kg, ear thickness every 15 minutes for 90 minutes
Description: Ear inflammation was measured by assessing ear tissue swelling after topical application of arachidonic acid, as described previously [Hanus (1999) id. ibid.]. Briefly, at various times after i.p. drug injections, arachidonic acid was applied to the inner surface of one ear (4.5 mg dissolved in […] ethanol). The opposite ear served as control (5 ethanol). Ear thickness was determined (in 0.01-mm units) by using a dial thickness gauge (Mitutoyo, Japan) every 15 minutes for 90 minutes, starting immediately after arachidonic acid application.

female Sabra mice [10] = experiment: Tetrad overall (central cannabinoid activity); type: in vivo; details: 20 mg/kg i.p., tested 60 minutes later
Description: Central activity of the compounds of the invention was assessed in the “tetrad”, which is a series of assays commonly used to measure central cannabimimmetic effects [Martin, B. R. et al. (1991) Pharmacol. Biochem. Behav. 40(3): 471-8; Fride, E. and C. Sanudo-Pena (2002) id. ibid.]. Three parameters for peripheral activity were used. Since gastrointestinal transit is regulated locally in the periphery rather than by centrally located CB1 receptors [Izzo (2000) id. ibid.; Landi (2002) id. ibid.], intestinal motility was one of the parameters used, and peripheral cannabinoid effects was measured as rates of defecation (see Example 29).
as §1

female Sabra mice [11] = details: Hanus (1999); antagonized by SR144528, not by SR141716A; cited from earlier work
[12] = system: CB1−/− receptor knockout mice; experiment: Central effects in CB1−/− receptor knockout mice; type: in vivo; details: not shown
Description: (§3) Female Sabra mice (2-3 months of age) were purchased from Harlan, Israel. Breeding pairs of CB1−/− receptor knockout mice were provided by Prof. A. Zimmer, University Clinic Bonn, Germany.
as §1

[13] = system: CB1−/− receptor knockout mice; experiment: Intestinal motility in CB1−/− receptor knockout mice; type: in vivo; details: 20 mg/kg i.p., defecation rate recorded for 3 hours
Description: Female CB1−/− knockout mice were injected i.p. with (+)-7-OH-CBD-DMH, (+)-CBD-DMH or Δ^9-THC (20 mg/kg). Intestinal motility (defecation rate) was recorded for a period of 3 hours.
as §3, §2

female Sabra mice [14] = experiment: Intestinal motility after antagonist pre-treatment (SR141716A, SR144528, capsazepine); type: in vivo
Description: (SR1, 1 mg/kg). SR1 was injected (i.p.) 30 minutes before the agonist. 60 minutes after (+)CBD-DMH the number of fecal pellets was recorded.
(SR2, 1 mg/kg). SR2 was injected (i.p.) 30 minutes before the agonist. 60 minutes after (+)-CBD-DMH the number of fecal pellets was recorded.
as §1, §2

CB1 receptor [15] = target: T2, CB1 receptor; details: cited from earlier work
CB2 receptor [16] = target: T1, CB2 receptor; details: cited from earlier work

T2 sequence (P20272 whole entry): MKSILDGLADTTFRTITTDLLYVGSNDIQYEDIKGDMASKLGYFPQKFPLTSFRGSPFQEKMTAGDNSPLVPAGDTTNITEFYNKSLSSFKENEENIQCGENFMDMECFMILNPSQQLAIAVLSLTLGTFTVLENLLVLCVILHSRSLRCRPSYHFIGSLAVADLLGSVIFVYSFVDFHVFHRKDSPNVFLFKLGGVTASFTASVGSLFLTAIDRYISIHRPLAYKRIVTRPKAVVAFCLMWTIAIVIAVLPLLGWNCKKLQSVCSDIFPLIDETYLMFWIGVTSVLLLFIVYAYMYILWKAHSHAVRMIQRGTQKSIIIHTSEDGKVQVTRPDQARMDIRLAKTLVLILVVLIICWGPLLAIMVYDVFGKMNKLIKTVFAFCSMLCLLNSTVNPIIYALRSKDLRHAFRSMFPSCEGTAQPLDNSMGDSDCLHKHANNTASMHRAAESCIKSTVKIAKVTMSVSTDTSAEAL
T1 sequence (P34972 whole entry): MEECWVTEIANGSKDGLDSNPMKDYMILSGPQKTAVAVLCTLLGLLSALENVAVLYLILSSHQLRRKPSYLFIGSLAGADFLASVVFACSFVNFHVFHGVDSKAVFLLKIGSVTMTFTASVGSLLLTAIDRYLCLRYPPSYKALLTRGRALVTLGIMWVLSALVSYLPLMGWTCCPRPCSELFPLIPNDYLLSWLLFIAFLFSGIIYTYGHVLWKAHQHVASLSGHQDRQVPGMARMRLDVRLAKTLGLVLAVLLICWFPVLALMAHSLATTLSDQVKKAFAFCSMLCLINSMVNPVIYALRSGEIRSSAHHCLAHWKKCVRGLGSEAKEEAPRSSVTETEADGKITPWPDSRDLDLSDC

SMILES | Ki (CB2 receptor [1]) [nM] | Hypothermia (Δ-Body Temp.) (female Sabra mice [2]) | Inhibition of Intesitinal Motility (% MPE) (female Sabra mice [3]) | Vertical Movements (% MPE) (female Sabra mice [4]) | Catalepsy (Freezing of Movement) (% MPE) (female Sabra mice [5]) | Horizontal Movements (% MPE) (female Sabra mice [6]) | Ki (CB1 receptor [7]) [nM] | Analgesia (Hot Plate) (% MPE) (female Sabra mice [8]) | further results
C=C(C)C1CCC(C(=O)O)=CC1c1c(O)cc(CCCCC)cc1O (single isomer, unassigned) [+COOH−CBD, 7-Nor-carboxy CBD] | 322 | −0.6 °C | 100* % MPE | 71 % MPE | 06 % MPE | 80 % MPE | 13.2 | – | –
C=C(C)C1CCC(C(=O)O)=CC1c1c(O)cc(C(C)(C)CCCCCC)cc1O (single isomer, unassigned; (+)) [+COOH−CBD−DMH, (+)-7-Nor-carboxy CBD DMH] | 156 | 0.2 °C | 100* % MPE | 100 % MPE | 0 % MPE | 102 % MPE | 5.8 | 09 % MPE | –
COc1ccc2c(c1)c(CC(=O)O)c(C)n2C(=O)c1ccc(Cl)cc1 [Indomethacin, reference compound] | – | – | – | – | – | – | – | – | potency compared to indomethacin in ear inflammation, in words ([9]; (+)-CBD-DMH 40 or 10 mg/kg vs indomethacin 20 mg/kg): Equal potencies
C=C(C)C1CCC(CO)=CC1c1c(O)cc(CCCCC)cc1O (single isomer, unassigned; (+)) [+70H−CBD, (+)-7-Hydroxy CBD] | 101 | 0.3 °C | 89* % MPE | 81 % MPE | 0 % MPE | 107 % MPE | 5.3 | 77 % MPE | –
C=C(C)C1CCC(C)=CC1c1c(O)cc(CCCCC)cc1O (single isomer, unassigned; (+)) [+CBD, (+)-CBD] | – | 0.5 °C | 13 % MPE | 103 % MPE | 05 % MPE | 108 % MPE | – | 13 % MPE | CB2 receptor binding, in words (CB2 receptor [1]): weakly binds; inhibition of defecation / intestinal motility, in words (female Sabra mice [3]): had no central neither peripheral (intestinal motility) effects; also recorded: Lack of effects; central effects (tetrad), in words (female Sabra mice [10]): had no central neither peripheral (intestinal motility) effects; also recorded: Lack of effects; CB1 receptor binding, in words (CB1 receptor [7]): weakly binds; inhibition of arachidonic acid-induced ear inflammation, in words [9]: had no effect
CCCCCCC(C)(C)c1cc(OC)c([C@@H]2C=C(CO)[C@@H]3C[C@H]2C3(C)C)c(OC)c1 [HU-308] | – | – | – | – | – | – | – | – | inhibition of defecation (earlier report) (female Sabra mice [11]): inhibited defecation
CCCCCc1cc(O)c2c(c1)OC(C)(C)[C@@H]1CCC(C)=C[C@@H]21 [Δ^9−THC, Delta-9 tetrahydrocannabinol, reference compound] | – | −2.1* ° C. | 100* % MPE | 12* % MPE | 44* % MPE | 44* % MPE | – | 97* % MPE | central effects in CB1−/− receptor knockout mice [12]: None of the drugs assessed ((+)-CBD-DMH, (+)-7-OH-CBD-DMH and Δ^9-THC had any effect; effect on intestinal motility in CB1−/− knockout mice [13]: None of the drugs assessed ((+)-CBD-DMH, (+)-7-OH-CBD-DMH and Δ^9-THC had any effect; also recorded: No significant effects
C=C(C)C1CCC(CO)=CC1c1c(O)cc(C(C)(C)CCCCCC)cc1O (single isomer, unassigned; (+)) [+70H−CBD−DMH, (+)-7-Hydroxy CBD-DMH] | – | −5.2* ° C. | 100* % MPE | 0* % MPE | 95* % MPE | 01* % MPE | – | 100* % MPE | inhibition of defecation / intestinal motility, in words (female Sabra mice [3]): completely blocked; central effects (tetrad), in words (female Sabra mice [10]): very potent; central effects (tetrad), in words (female Sabra mice [10]; listed as (+)-7-OH-CBD-DMH): had central effects in all assays of the tetrad; central effects (tetrad), in words (female Sabra mice [10]; listed as (+)-7OH-CBD-DMH): significant and consistent central activity; reversal of inhibition of defecation by CB1 antagonist SR141716A (female Sabra mice [14]; agonist 20 mg/kg, SR141716A 1 mg/kg i.p. 30 minutes before agonist): effectively antagonized; reversal of inhibition of defecation by CB2 antagonist SR144528 (female Sabra mice [14]; agonist 20 mg/kg, SR144528 1 or 3 mg/kg i.p. 30 minutes before agonist): not at all; effect of VR1 antagonist capsazepine on inhibition of defecation (female Sabra mice [14]; data not shown): did not affect; central effects in CB1−/− receptor knockout mice [12]: None of the drugs assessed ((+)-CBD-DMH, (+)-7-OH-CBD-DMH and Δ^9-THC had any effect; Ki (CB1 receptor [15]; first value of CB1/CB2 cell, data from Bisogno et al., 2001, read-out: CB1 Receptor Binding (Ki)): 2.5 nM; Kd (CB1 receptor [15]; previously reported, Bisogno et al. 2001, read-out: affinity for the CB1 receptor (Kd)): 2.5 nM; inhibition of arachidonic acid-induced ear inflammation, in words ([9]; listed as (+)7OH-CBD-DMH): effectively prevented ear inflammation; inhibition of arachidonic acid-induced ear inflammation, in words ([9]; listed as (+)-7-OHCBD-DMH): inhibited ear inflammation; Kd (CB2 receptor [16]; previously reported, Bisogno et al. 2001, read-out: affinity for the CB2 receptor (Kd)): 44 nM; Ki (CB2 receptor [16]; second value of CB1/CB2 cell, data from Bisogno et al., 2001, read-out: CB2 Receptor Binding (Ki)): 44 nM; effect on intestinal motility in CB1−/− knockout mice ([13]; listed as (+)-7-OH-CBD-DMH): None of the drugs assessed ((+)-CBD-DMH, (+)-7-OH-CBD-DMH and Δ^9-THC had any effect; also recorded: no effects
